Reference: patent publication US20080160088A1, “COMPOSITION CONTAINING HYDROXYAPATITE AND A CALCIUM SALT” (L'OREAL, priority 2006, published 2008)

Test system: Episkin™ reconstructed epidermides
Assay: Diffusion of radioactively labelled caffeine through Episkin reconstructed epidermides (barrier function)
Assay type: cell-based
Conditions: 200 μg/ml; for Reduction of the passage of caffeine after 2 hours of application (in %): relative to the control
Method: Hydroxyapatite in the form of particles sold under the name Hydroxysomes™ by LSC and their combination with a calcium D-pantetheine sulfonate sold by SOGO Pharmaceutical were tested on an in vitro model to evaluate the overall effect of this combination on the barrier function of the skin.
This test consists in applying the test active agents to Episkin™ reconstructed epidermides differentiated on D13, and then, after incubation for 5 days, in applying radioactively labelled caffeine and monitoring the diffusion of the labelled caffeine through the reconstructed epidermides.
Vitamin C, which is known to improve the epidermal barrier function via stimulation of the synthesis of the epidermal lipids, is used as a reference molecule for this test (positive control). Water is used as a negative control.
Differentiated (D13) Episkin™ epidermides were placed in 12-well plates containing 2 ml of differentiation medium and were precultured at 37° C. and 5% CO2 for 24 hours. After incubation, the epidermides were treated topically with 100 μl of each concentration of test product or of the reference product (vitamin C).
Control epidermides were treated topically with 100 μl of water.
The epidermides were then incubated at 37° C. and 5% CO2 for 5 days, with changing of the medium and new application of the active agents after 2 days.
The treatments were performed in quintuplicate (n=5).
Four epidermides were used for the passage of caffeine and one “control” epidermis was kept to perform histology at the end of the experiment.
After treatment with the test active agents and the reference product (vitamin C), the epidermides were washed and the caffeine was applied to the surface of each epidermis at a rate of 100 μl containing 2 μCi/ml (0.04 mM) of radioactive caffeine and 0.35 mM of cold caffeine, which corresponds to about 500 000 cpm total.
The % activity of caffeine after 2 hours of application was measured.

O=C1O[C@H]([C@@H](O)CO)C(O)=C1O [Vitamin C]
activity at 200 µg/mL (topical 5 days, caffeine after 2 hours of application, read-out: % activity relative to the control): 59%
Reduction of the passage of caffeine after 2 hours of application (in %): −41%
Reduction of the passage of caffeine after 2 hours of application (in %) (listed as vitamin C): −41%
